Assay results from US6399629B1, “Efflux pump inhibitors” (priority 1998, dated 2002).
Where a name gives a salt, the structure may show the parent alone.

Key:
[1] = test system: Pseudomonas aeruginosa PAM1001; assay: microbe, parasite or virus in culture; assay type: cell-based; conditions: for inhibition at 2.5 µg/mL / inhibition at 5 µg/mL / inhibition at 10 µg/mL / inhibition at 20 µg/mL / inhibition at 40 µg/mL: Pseudomonas aeruginosa, PAM1001, read-out: Inhibition (%) of growth of P. aeruginosa PAM1001; for Inhibition (%) of growth of P. aeruginosa PAM1001: Levofloxacin 0.25 μg/mL
Procedure: For compounds labeled with the prefix ‘D’, potentiation is measured by inhibition of growth of Pseudomonas aeruginosa PAM1001 at varying concentrations of efflux pump inhibitors (EPIs) in the presence of levofloxacin (0.25 microg/mL). Bacteria are grown in Mueller Hinton Broth (MHB, Difco) with an initial inoculum of 1×10^6 CFU/mL. Kinetics of bacterial growth is monitored, during 18 h of incubation at 37° C., by measurement of the culture absorbance at 650 nm using a 96-well plate spectrophotometer (SpectraMax, Molecular Devices). The inhibitory effect of EPIs is expressed as a percentage of growth inhibition compared to a control bacterial culture grown in the presence of 0.25 microg/mL levofloxacin but without EPIs.

[2] = test system: Pseudomonas aeruginosa PAM1001; assay: checkerboard assay (broth microdilution): levofloxacin MIC in presence of efflux pump inhibitor; assay type: cell-based
In short: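 Checkerboard broth microdilution in Mueller Hinton Broth against P. aeruginosa PAM1001 (5×10^5 CFU/mL, early-log inoculum), levofloxacin and efflux pump inhibitor (up to 40 μg/mL) diluted along crossing axes. Plates incubated 20 h at 35° C; growth read at 650 nm and visually. Potentiation scored as reduced levofloxacin MIC.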

[3] = Concentration of Compound 2.5 μg/mL
[4] = Concentration of Compound 5 μg/mL
[5] = Concentration of Compound 10 μg/mL
[6] = Concentration of Compound 20 μg/mL
[7] = Concentration of Compound 40 μg/mL

| Compound | inhibition at 2.5 µg/mL [1] | inhibition at 5 µg/mL [1] | inhibition at 10 µg/mL [1] | inhibition at 20 µg/mL [1] | inhibition at 40 µg/mL [1] | also measured |
| --- | --- | --- | --- | --- | --- | --- |
| CNCC(=O)N1C[C@H](N)C[C@H]1C(=O)N1C[C@H](NC(=O)[C@H](O)CCc2ccccc2)C[C@H]1C(=O)Nc1cnc2ccccc2c1 (mixture of isomers) [Compound D111, 1-(N-Methylglycyl)-trans-4-Amino-L-Prolyl-trans-4-((R)-2-Hydroxy-4-Phenylbutyrylamino)-L-Proline 3-Quinolylamide Trihydrochloride] | 20% | 20% | 19% | 27% | 100% |  |
| NCC(=O)N[C@H]1CN[C@H](C(=O)NCC(=O)Nc2ccc(Cc3ccccc3)cc2)C1 [Compound D210, trans-4-Glycylamino-L-Prolylglycine 4-Benzylphenyl-amide Dihydrochloride] | 14% | 16% | 12% | 99% | 100% |  |
| NCC(=O)N[C@H]1CN[C@H](C(=O)Nc2cccc(OCc3ccccc3)c2)C1 [Compound D318, trans-4-Glycylamino-L-Proline 3-Benzyloxyphenyl-amide Dihydrochloride] | 17% | 16% | 19% | 99% | 99% |  |
| NCC(=O)N[C@H]1CN[C@H](C(=O)N[C@H](CCc2ccccc2)C(=O)Nc2cnc3ccccc3c2)C1 [Compound D201, trans-4-Glycylamino-L-Prolyl-D-Homophenylalanine 3-Quinolylamide Trihydrochloride] | 17% | 9% | 99% | 100% | 100% |  |
| NCCC[C@H](N)C(=O)N1C[C@@H](NC(=O)CCCc2ccccc2)C[C@H]1C(=O)Nc1ccc2c(c1)CCC2 [Compound D122, L-Ornithyl-cis-4-(4-phenylbutanoyl)amino-L-proline 5-Indanylamide] | 16% | 99% | 100% | 100% | 99% |  |
| NCC(=O)N[C@H]1CN[C@H](C(=O)N[C@H](CCc2ccccc2)C(=O)Nc2ccc3c(c2)CCC3)C1 [Compound D203, trans-4-Glycylamino-L-Prolyl-D-Homophenylalanine 5-Indanylamide Dihydrochloride] | 18% | 17% | 100% | 100% | 100% |  |
| CC(C)(C)c1ccc(NC(=O)[C@@H]2C[C@@H](NC(=O)CN)CN2)cc1 [Compound D313, trans-4-Glycylamino-L-Proline 4-tert-Butylphenyl-amide Dihydrochloride] | 17% | 17% | 96% | 99% | 99% |  |
| Cl.Cl.Cl.NCC(=O)N[C@H]1CN[C@H](C(=O)Nc2cnc3ccc(Cc4ccccc4)cc3c2)C1 (relative stereo) [Compound D327, trans-4-Glycylamino-L-Proline 3-(6-Benzyl)quinolyl-amide Trihydrochloride] |  |  |  |  |  | Inhibition (%) of growth of P. aeruginosa PAM1001 [1, 3]: 20%; Inhibition (%) of growth of P. aeruginosa PAM1001 [1, 4]: 19%; Inhibition (%) of growth of P. aeruginosa PAM1001 [1, 5]: 99%; Inhibition (%) of growth of P. aeruginosa PAM1001 [1, 6]: 100%; Inhibition (%) of growth of P. aeruginosa PAM1001 [1, 7]: 100% |
| N[C@H]1CCN[C@H](C(=O)Nc2ccc(Oc3ccccc3)cc2)C1 [Compound D329, trans-4-Amino-L-Pipecolinoyl-(4-Phenoxyphenyl)-amide Dihydrochloride] | 20% | 20% | 17% | 16% | 97% |  |
| Cc1c(Cl)cccc1N1CCN(C(=O)[C@H]2C[C@H](NC(=O)[C@@H](O)CN)CN2)CC1 [Compound D402, 1-[trans-4-((2S)-3-Amino-2-Hydroxypropionylamino)-D-Prolyl]-4-(3-Chloro-2-Methylphenyl)piperazine Dihydrochloride] | 19% | 71% | 99% | 100% | 101% |  |
| Cl.Cl.Cl.NCC(=O)N[C@H]1CN[C@H](C(=O)Nc2nc(-c3ccccc3)cs2)C1 (relative stereo) [Compound D326, trans 4GlycylaminoL-Proline 4-Phenylthiazol-2-ylamide Trihydrochloride] |  |  |  |  |  | Inhibition (%) of growth of P. aeruginosa PAM1001 [1, 3]: 18%; Inhibition (%) of growth of P. aeruginosa PAM1001 [1, 4]: 19%; Inhibition (%) of growth of P. aeruginosa PAM1001 [1, 5]: 17%; Inhibition (%) of growth of P. aeruginosa PAM1001 [1, 6]: 13%; Inhibition (%) of growth of P. aeruginosa PAM1001 [1, 7]: 74% |
| Cc1ccc(NC(=O)[C@@H](CCc2ccccc2)NC(=O)[C@@H]2C[C@@H](NC(=O)CN)CN2)cc1C [Compound D204, trans-4-Glycylamino-L-Prolyl-D-Homophenylalanine 3,4-Dimethylphenylamide Dihydrochloride] | 18% | 16% | 3% | 100% | 100% |  |
| N[C@H]1CN[C@H](C(=O)N2C[C@H](NC(=O)[C@H](O)CCc3ccccc3)C[C@H]2C(=O)Nc2cnc3ccccc3c2)C1 (mixture of isomers) [Compound D101, trans-4-Amino-L-Prolyl-trans-4-((R)-2-Hydroxy-4-Phenylbutyrylamino)-L-Proline 3-Quinolylamide Trihydrochloride] |  |  |  | 20% | 94% |  |
| Cl.Cl.Cl.NCC(=O)N[C@@H]1CCN[C@H](C(=O)N2C[C@H](NC(=O)[C@H](O)CCc3ccccc3)C[C@H]2C(=O)Nc2cnc3ccccc3c2)C1 (relative stereo) [Compound D115, cis-4-Glycylamino-L-Pipecolinoyl-trans-4-((R)-2-Hydroxy-4-Phenylbutyrylamino)-L-Profine 3-Quinolylamide Trihydrochloride] |  |  |  |  |  | Inhibition (%) of growth of P. aeruginosa PAM1001 [1, 3]: 15%; Inhibition (%) of growth of P. aeruginosa PAM1001 [1, 4]: 16%; Inhibition (%) of growth of P. aeruginosa PAM1001 [1, 5]: 8%; Inhibition (%) of growth of P. aeruginosa PAM1001 [1, 6]: 50%; Inhibition (%) of growth of P. aeruginosa PAM1001 [1, 7]: 100% |
| (2R,4S)-4-[(2R)-2-Aminopropionamido]-N-(2-phenylethyl)-N-(3-quinolylcarbamoyl)ethyl]-2-pyrrolidinecarboxamide [Compound M42] |  |  |  |  |  | Levofloxacin MIC Against P. aerugiuosa PAM1001 in Presence of Efflux Pump Inhibitor (EPI), Minimum Inhibitory Concentration ([2]; EPI Conc. 0 μg/mL): 4 µg/mL; Levofloxacin MIC Against P. aerugiuosa PAM1001 in Presence of Efflux Pump Inhibitor (EPI), Minimum Inhibitory Concentration ([2]; EPI Conc. 0.625 μg/mL): 4 µg/mL; Levofloxacin MIC Against P. aerugiuosa PAM1001 in Presence of Efflux Pump Inhibitor (EPI), Minimum Inhibitory Concentration ([2]; EPI Conc. 1.25 μg/mL): 4 µg/mL; Levofloxacin MIC Against P. aerugiuosa PAM1001 in Presence of Efflux Pump Inhibitor (EPI), Minimum Inhibitory Concentration ([2]; EPI Conc. 2.5 μg/mL): 4 µg/mL; Levofloxacin MIC Against P. aerugiuosa PAM1001 in Presence of Efflux Pump Inhibitor (EPI), Minimum Inhibitory Concentration ([2]; EPI Conc. 5 μg/ mL): 4 µg/mL; Levofloxacin MIC Against P. aerugiuosa PAM1001 in Presence of Efflux Pump Inhibitor (EPI), Minimum Inhibitory Concentration ([2]; EPI Conc. 10 μg/mL): 0.50 µg/mL; Levofloxacin MIC Against P. aerugiuosa PAM1001 in Presence of Efflux Pump Inhibitor (EPI), Minimum Inhibitory Concentration ([2]; EPI Conc. 20 μg/mL): 0.06 µg/mL; Levofloxacin MIC Against P. aerugiuosa PAM1001 in Presence of Efflux Pump Inhibitor (EPI), Minimum Inhibitory Concentration ([2]; EPI Conc. 40 μg/mL): 0.06 µg/mL |
| NCCC(=O)N[C@H]1CN[C@H](C(=O)N[C@H](CCc2ccccc2)C(=O)Nc2cnc3ccccc3c2)C1 [Compound M6, (2S,4R)-4-[3-(Aminopropionamido])-N-[(1R)-3-phenyl-1-(3-quinolylcarbamoyl)propyl]-2-pyrrolidinecarboxamide] |  |  |  |  |  | Levofloxacin MIC Against P. aerugiuosa PAM1001 in Presence of Efflux Pump Inhibitor (EPI), Minimum Inhibitory Concentration ([2]; EPI Conc. 0 μg/mL): 4 µg/mL; Levofloxacin MIC Against P. aerugiuosa PAM1001 in Presence of Efflux Pump Inhibitor (EPI), Minimum Inhibitory Concentration ([2]; EPI Conc. 0.625 μg/mL): 4 µg/mL; Levofloxacin MIC Against P. aerugiuosa PAM1001 in Presence of Efflux Pump Inhibitor (EPI), Minimum Inhibitory Concentration ([2]; EPI Conc. 1.25 μg/mL): 4 µg/mL; Levofloxacin MIC Against P. aerugiuosa PAM1001 in Presence of Efflux Pump Inhibitor (EPI), Minimum Inhibitory Concentration ([2]; EPI Conc. 2.5 μg/mL): 4 µg/mL; Levofloxacin MIC Against P. aerugiuosa PAM1001 in Presence of Efflux Pump Inhibitor (EPI), Minimum Inhibitory Concentration ([2]; EPI Conc. 5 μg/ mL): 4 µg/mL; Levofloxacin MIC Against P. aerugiuosa PAM1001 in Presence of Efflux Pump Inhibitor (EPI), Minimum Inhibitory Concentration ([2]; EPI Conc. 10 μg/mL): 2 µg/mL; Levofloxacin MIC Against P. aerugiuosa PAM1001 in Presence of Efflux Pump Inhibitor (EPI), Minimum Inhibitory Concentration ([2]; EPI Conc. 20 μg/mL): 0.06 µg/mL; Levofloxacin MIC Against P. aerugiuosa PAM1001 in Presence of Efflux Pump Inhibitor (EPI), Minimum Inhibitory Concentration ([2]; EPI Conc. 40 μg/mL): 0.015 µg/mL |
| CCc1ccc2ncc(NC(=O)[C@@H](Cc3ccc(O)cc3)NC(=O)[C@H]3C[C@H](CN)CN3)cc2c1 [Compound M25, (2R,4R)-4-(Amiomethyl)-N-[(1R)-2-(4-hydroxyphenyl)-1-(6-ethyl-3-quinolylcarbamoyl)ethyl]-2-pyrrolidinecarboxamide] |  |  |  |  |  | Levofloxacin MIC Against P. aerugiuosa PAM1001 in Presence of Efflux Pump Inhibitor (EPI), Minimum Inhibitory Concentration ([2]; EPI Conc. 0 μg/mL): 4 µg/mL; Levofloxacin MIC Against P. aerugiuosa PAM1001 in Presence of Efflux Pump Inhibitor (EPI), Minimum Inhibitory Concentration ([2]; EPI Conc. 0.625 μg/mL): 4 µg/mL; Levofloxacin MIC Against P. aerugiuosa PAM1001 in Presence of Efflux Pump Inhibitor (EPI), Minimum Inhibitory Concentration ([2]; EPI Conc. 1.25 μg/mL): 4 µg/mL; Levofloxacin MIC Against P. aerugiuosa PAM1001 in Presence of Efflux Pump Inhibitor (EPI), Minimum Inhibitory Concentration ([2]; EPI Conc. 2.5 μg/mL): 4 µg/mL; Levofloxacin MIC Against P. aerugiuosa PAM1001 in Presence of Efflux Pump Inhibitor (EPI), Minimum Inhibitory Concentration ([2]; EPI Conc. 5 μg/ mL): 4 µg/mL; Levofloxacin MIC Against P. aerugiuosa PAM1001 in Presence of Efflux Pump Inhibitor (EPI), Minimum Inhibitory Concentration ([2]; EPI Conc. 10 μg/mL): 0.5 µg/mL; Levofloxacin MIC Against P. aerugiuosa PAM1001 in Presence of Efflux Pump Inhibitor (EPI), Minimum Inhibitory Concentration ([2]; EPI Conc. 20 μg/mL): 0.015 µg/mL |
